# In patent US10550094B2, “Compounds having antioxidant activity against free radicals and anti-inflammatory activity, and corresponding pharmaceutical or cosmetic compositions for skin care” (GIULIANI S.P.A., priority 2015, dated 2020):
# Tested on: human keratinocytes NCTC2544
# Assay: MTT assay with induced oxidative stress (H2O2)
# Assay type: cell-based
# Conditions: 16 h pretreatment, then 1 mM H2O2, NCTC2544
# Description: The immortalized line of human keratinocytes NCTC2544 is used (Perry V. P. et al., 1957), cultured in sterile flasks ([…]), incubated at 37° C. in a humid atmosphere at 5% CO2 in RPMI culture medium added with bovine fetal serum (FBS), 2 mm glutamine, 1% non-essential amino acids, in the presence of 1% penicillin and streptomycin. The 1:3 split is done every 2 days upon achieving the monolayer by washing with 1×PBS (phosphate buffer without Ca^2+ and Mg^2+) and detachment of cells with a trypsin-EDTA solution at 37° C. for 2 minutes. The cells were kept in culture in 25 cm^3 sterile flasks and incubated at 37° C. in a humid atmosphere at 5% CO2.
# (§1) Negative control: untreated cells in RPMI medium added to 2.5% fetal bovine serum (FBS), 1% non-essential amino acids (NEAA), 1% of a penicillin and streptomycin mixture (Pen-Strep Mix), and kept in (96 well) 25 cm^2 culture plates at 37° C. and 5% CO2 (in the dark).
# as §1, with “Positive” for “Negative”, “control:” for “control: untreated”, “cells treated for 2 h with 1 mM hydrogen peroxide” for “cells”
# MTT with Induced Oxidative Stress-NCTC 2544
# Through this method it is possible to study the protective effects of such compounds on cells then subjected to oxidative stress. The induction of oxidative stress is carried out by incubation with hydrogen peroxide, an agent inducing the production of oxidative damage in cells through the formation of ROS. Any protective effects can be determined through the evaluation of the cell viability post oxidative stress of cells pretreated/pre-exposed to the active compounds to be tested, compared to cells subjected to the same oxidative stress. A greater cell viability will correspond to a protective effect of the compounds tested.
# The assay was conducted in accordance with the method described by Coda and collaborators (Coda et al., 2012), with some changes. Human keratinocytes NCTC2544 were seeded in a 96-well plate at the density of 5*10^4 cells/well and incubated at 37° C. until reaching about 80% confluence.
# Then, the cells were incubated for 16 hours with the active compounds to be tested and the respective controls at the following concentrations: 13.5 μM and 27 μM. The dilutions were prepared starting from 1000× stock in DMSO, sterile-filtered and using RPMI medium added to 2.5% fetal bovine serum (FBS), 1% non-essential amino acids (NEAA), 1% of a penicillin and streptomycin mixture (Pen-Strep Mix). Cells treated with H2O2 1 mM were used as a positive control; cells kept in culture medium alone (RPMI 2.5% FCS) were used instead as a negative control. After 16 hours of pretreatment, the cells were washed with PBS 1× and incubated for 90 minutes with a […] H2O2 solution (Sigma-Aldrich, St. Louis, Mo., USA) in serum-free medium, in the dark, at 37° C. and 5% CO2.
# After the step of induction of the oxidative stress, the cell viability of the samples of the above compounds of the invention was evaluated in accordance with the method described by Mosmann T. Rapid colorimetric assay for cellular growth and survival: application to proliferation and cytotoxicity assays. J Immunol Methods. 1983 Dec. 16; 65(1-2):55-63.
# The data were expressed as percentage of cell viability compared with control cells (ctr) not stressed, according to the following formula: % cell viability/ctr=(Abs sample/Abs ctr)·100
# All the assays were performed at least two times in duplicate.
Compound,% protection (13.5 μM) [%],% protection (27 μM) [%],"% protection (27 μM, listed as tetracetyl sorbityl furfural)","% protection (13.5 μM, listed as xylitil furfural)"
"CC(=O)OCC1OC(c2ccco2)OC(C(COC(C)=O)OC(C)=O)C1OC(C)=O (stereo not drawn) [Tetracetyl sorbityl furfural, tetracetyl sorbityl furfural]",34.385,49.201,remarkable,
"O=C(OCC1OC(c2ccco2)OC(C(COC(=O)c2ccccc2)OC(=O)c2ccccc2)C1OC(=O)c1ccccc1)c1ccccc1 (stereo not drawn) [Tetrabenzoyl sorbityl furfural, tetrabenzoyl sorbityl furfural]",36.035,8.725,,
"COc1cc(C2OC(CO)C(O)C(C(O)CO)O2)ccc1O (stereo not drawn) [Sorbityl vanillinal, sorbityl vanillinal]",11.320,22.766,,
"OCC(O)C1OC(c2ccccc2)OC(CO)C1O (stereo not drawn) [Sorbityl benzal, sorbityl benzal]",11.673,20.439,,
"OCC1OC(c2ccco2)OC(CO)C1O (stereo not drawn) [Xylitil furfural, xylitil furfural]",59.554,33.651,,remarkable
